Results published in US20170253562A1, “Nampt Inhibitors” (AbbVie Inc., priority 2011, published 2017).

Each compound was assayed against recombinant, human, C-terminally-His tagged NAMPT (Homo sapiens, UniProt P43490) (assay: Time-Resolved Fluorescence Resonance Energy Transfer (TR-FRET) binding assay of NAMPT). Settings: 6.8 nM NAMPT, 200 nM probe (Oregon Green 488-conjugated APO866), 2-3 hours.
Description: Time-Resolved Fluorescence Resonance Energy Transfer (TR-FRET) Binding Assay of NAMPT
Plates were read with Envision (Laser Lantha low volume protocol) after 2 to 3 hours.

Sequence of recombinant, human, C-terminally-His tagged NAMPT (P43490 whole entry): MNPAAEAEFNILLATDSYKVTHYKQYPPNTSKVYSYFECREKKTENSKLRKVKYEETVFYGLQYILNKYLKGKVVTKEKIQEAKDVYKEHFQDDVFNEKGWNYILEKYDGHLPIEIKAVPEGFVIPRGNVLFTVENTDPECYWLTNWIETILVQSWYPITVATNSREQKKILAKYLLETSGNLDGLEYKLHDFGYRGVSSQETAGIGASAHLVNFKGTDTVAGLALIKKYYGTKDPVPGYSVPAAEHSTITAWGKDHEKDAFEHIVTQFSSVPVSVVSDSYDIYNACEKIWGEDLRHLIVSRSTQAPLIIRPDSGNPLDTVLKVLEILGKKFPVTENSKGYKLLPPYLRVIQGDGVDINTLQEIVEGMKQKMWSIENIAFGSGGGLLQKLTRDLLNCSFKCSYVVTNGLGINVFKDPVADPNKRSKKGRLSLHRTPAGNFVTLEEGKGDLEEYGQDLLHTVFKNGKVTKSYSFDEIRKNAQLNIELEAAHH

Structure (SMILES)	IC50 [nM]
O=C(NC1COC2(CCNCC2)C1)c1ccc(NC(=O)N2Cc3ccccc3C2)nn1 (stereo not shown) [Example 38, N-[6-(1-oxa-8-azaspiro[4.5]dec-3-ylcarbamoyl)pyridazin-3-yl]-1,3-dihydro-2H-isoindole-2-carboxamide]	869
O=C(NC1[C@H]2CNC[C@@H]12)c1ccc(NC(=O)N2Cc3ccccc3C2)nn1 (stereo partly drawn) [Example 26, N-{6-[(1R,5S)-3-azabicyclo[3.1.0]hex-6-ylcarbamoyl]pyridazin-3-yl}-1,3-dihydro-2H-isoindole-2-carboxamide]	2890
O=C(NCc1nnn2c1CNCCC2)c1ccc(NC(=O)N2Cc3ccccc3C2)nn1 [Example 49, N-{6-[(5,6,7,8-tetrahydro-4H-[1,2,3]triazolo[1,5-a][1,4]diazepin-3-ylmethyl)carbamoyl]pyridazin-3-yl}-1,3-dihydro-2H-isoindole-2-carboxamide]	4700
O=C(NCc1nc2c([nH]1)CNCC2)c1ccc(NC(=O)N2Cc3ccccc3C2)nn1 [Example 37, N-{6-[(4,5,6,7-tetrahydro-3H-imidazo[4,5-c]pyridin-2-ylmethyl)carbamoyl]pyridazin-3-yl}-1,3-dihydro-2H-isoindole-2-carboxamide]	934
O=C(Nc1ccc(C(=O)N2CCCC3(COC3)C2)nn1)N1Cc2ccccc2C1 [Example 14, N-[6-(2-oxa-6-azaspiro[3.5]non-6-ylcarbonyl)pyridazin-3-yl]-1,3-dihydro-2H-isoindole-2-carboxamide]	885
O=C(NCC1(F)CCNCC1)c1ccc(NC(=O)N2Cc3ccccc3C2)nn1 [Example 43, N-(6-{[(4-fluoropiperidin-4-yl)methyl]carbamoyl}pyridazin-3-yl)-1,3-dihydro-2H-isoindole-2-carboxamide]	2880

Compounds with a lower IC50, results first:

IC50 [nM]	Structure (SMILES)
270	O=C(Nc1ccc(C(=O)N2CC3CCOC3C2)nn1)N1Cc2ccccc2C1 (stereo not shown) [Example 11, N-[6-(hexahydro-5H-furo[2,3-c]pyrrol-5-ylcarbonyl)pyridazin-3-yl]-1,3-dihydro-2H-isoindole-2-carboxamide]
116	O=C(Nc1ccc(C(=O)N2CCC3(CNCCC3(F)F)C2)nn1)N1Cc2ccccc2C1 (stereo not shown) [Example 16, N-{6-[(10,10-difluoro-2,7-diazaspiro[4.5]dec-2-yl)carbonyl]pyridazin-3-yl}-1,3-dihydro-2H-isoindole-2-carboxamide]
4.08	O=C(NCCC1CCCCO1)c1ccc(NC(=O)N2Cc3ccccc3C2)cc1 (stereo not shown) [Example 4, N-(4-{[2-(tetrahydro-2H-pyran-2-yl)ethyl]carbamoyl}phenyl)-1,3-dihydro-2H-isoindole-2-carboxamide]
388	O=C(Nc1ccc(C(=O)N2CC3(CCOCC3)C2)nn1)N1Cc2ccccc2C1 [Example 18, N-[6-(7-oxa-2-azaspiro[3.5]non-2-ylcarbonyl)pyridazin-3-yl]-1,3-dihydro-2H-isoindole-2-carboxamide]
